# Assay results: ChEMBL document CHEMBL3885881, “DrugMatrix”
# Organism: Rattus norvegicus
# Assay: DrugMatrix - Regimen: Daily Repeat
# Type: toxicity, organism-based, Sprague-Dawley
# Parameters: regimen Daily Repeat, gender Male, age 6-8 weeks
# Settings: in vivo, po, route oral GAVAGE, vehicle 100 % WATER; for ABSOLUTE BASOPHIL / ABSOLUTE EOSINOPHIL / ABSOLUTE LYMPHOCYTE / ABSOLUTE MONOCYTE / ABSOLUTE SEGMENTED NEUTROPHIL / BASOPHIL / EOSINOPHIL / ERYTHROCYTE COUNT / HEMATOCRIT / HEMOGLOBIN / LEUKOCYTE COUNT / LYMPHOCYTE / MEAN CORPUSCULAR HEMOGLOBIN / MEAN CORPUSCULAR HEMOGLOBIN CONCENTRATION / MEAN CORPUSCULAR VOLUME / MONOCYTE / NEUTROPHIL / NUCLEATED RED BLOOD CELLS / PLATELET COUNT: tissue Blood; for ALANINE AMINOTRANSFERASE / ALKALINE PHOSPHATASE / ASPARTATE AMINOTRANSFERASE / BLOOD UREA NITROGEN / CARBON DIOXIDE / CHLORIDE / CHOLESTEROL / CREATINE PHOSPHOKINASE / CREATININE / GLUCOSE / LACTATE DEHYDROGENASE / LIPASE / PHOSPHORUS / POTASSIUM / SODIUM / TOTAL BILIRUBIN / TOTAL PROTEIN / URIC ACID: tissue Plasma
# [1] = 0 mg/kg, 72 h, dose level Control, time 3 day
# [2] = 0 mg/kg, 120 h, dose level Control, time 5 day
# [3] = 10 mg/kg, 72 h, dose level Low, time 3 day
# [4] = 10 mg/kg, 120 h, dose level Low, time 5 day
structure (smiles),measurement,setting,value
Cn1c(=O)c2[nH]cnc2n(C)c1=O.O [THEOPHYLLINE],ABSOLUTE BASOPHIL,[1],0 CELLS/uL
same,ABSOLUTE EOSINOPHIL,[1],168.33 CELLS/uL
same,ABSOLUTE LYMPHOCYTE,[1],13654.17 CELLS/uL
same,ABSOLUTE MONOCYTE,[1],121 CELLS/uL
same,ABSOLUTE SEGMENTED NEUTROPHIL,[1],1223.17 CELLS/uL
same,BASOPHIL,[1],0%
same,EOSINOPHIL,[1],1.17%
same,ERYTHROCYTE COUNT,[1],5.7 x10E6/uL
same,HEMATOCRIT,[1],35.33%
same,HEMOGLOBIN,[1],13.97 G/DL
same,LEUKOCYTE COUNT,[1],15.17 x10E3/uL
same,LYMPHOCYTE,[1],89.83%
same,MEAN CORPUSCULAR HEMOGLOBIN,[1],24.53 pg
same,MEAN CORPUSCULAR HEMOGLOBIN CONCENTRATION,[1],39.53 G/DL
same,MEAN CORPUSCULAR VOLUME,[1],62.05 fL
same,MONOCYTE,[1],0.83%
same,NEUTROPHIL,[1],8.17%
same,NUCLEATED RED BLOOD CELLS,[1],0 /100WBC
same,PLATELET COUNT,[1],1312.17 x10E3/uL
same,ALANINE AMINOTRANSFERASE,[1],50.83 u/L
same,ALKALINE PHOSPHATASE,[1],334.17 u/L
same,ASPARTATE AMINOTRANSFERASE,[1],82.17 u/L
same,BLOOD UREA NITROGEN,[1],15.5 mg/dL
same,CARBON DIOXIDE,[1],31.33 mmol/L
same,CHLORIDE,[1],99.83 MEQ/L
same,CHOLESTEROL,[1],76 mg/dL
same,CREATINE PHOSPHOKINASE,[1],272.17 u/L
same,CREATININE,[1],0.17 mg/dL
same,GLUCOSE,[1],143 mg/dL
same,LACTATE DEHYDROGENASE,[1],157.5 u/L
same,LIPASE,[1],9.33 u/L
same,PHOSPHORUS,[1],12.18 mg/dL
same,POTASSIUM,[1],6.78 MEQ/L
same,SODIUM,[1],143.9 MEQ/L
same,TOTAL BILIRUBIN,[1],0.22 mg/dL
same,TOTAL PROTEIN,[1],5.85 G/DL
same,URIC ACID,[1],1.7 mg/dL
same,ABSOLUTE BASOPHIL,[2],0 CELLS/uL
same,ABSOLUTE EOSINOPHIL,[2],0 CELLS/uL
same,ABSOLUTE LYMPHOCYTE,[2],13539.33 CELLS/uL
same,ABSOLUTE MONOCYTE,[2],177.67 CELLS/uL
same,ABSOLUTE SEGMENTED NEUTROPHIL,[2],2116.33 CELLS/uL
same,BASOPHIL,[2],0%
same,EOSINOPHIL,[2],0%
same,ERYTHROCYTE COUNT,[2],5.78 x10E6/uL
same,HEMATOCRIT,[2],36.13%
same,HEMOGLOBIN,[2],14.1 G/DL
same,LEUKOCYTE COUNT,[2],15.83 x10E3/uL
same,LYMPHOCYTE,[2],85.83%
same,MEAN CORPUSCULAR HEMOGLOBIN,[2],24.42 pg
same,MEAN CORPUSCULAR HEMOGLOBIN CONCENTRATION,[2],39 G/DL
same,MEAN CORPUSCULAR VOLUME,[2],62.55 fL
same,MONOCYTE,[2],0.83%
same,NEUTROPHIL,[2],13.33%
same,NUCLEATED RED BLOOD CELLS,[2],0.17 /100WBC
same,PLATELET COUNT,[2],1281.17 x10E3/uL
same,ALANINE AMINOTRANSFERASE,[2],55.5 u/L
same,ALKALINE PHOSPHATASE,[2],345 u/L
same,ASPARTATE AMINOTRANSFERASE,[2],92.5 u/L
same,BLOOD UREA NITROGEN,[2],16.5 mg/dL
same,CARBON DIOXIDE,[2],26.5 mmol/L
same,CHLORIDE,[2],103.5 MEQ/L
same,CHOLESTEROL,[2],78.5 mg/dL
same,CREATINE PHOSPHOKINASE,[2],381.5 u/L
same,CREATININE,[2],0.21 mg/dL
same,GLUCOSE,[2],161.83 mg/dL
same,LACTATE DEHYDROGENASE,[2],487.5 u/L
same,LIPASE,[2],10.17 u/L
same,PHOSPHORUS,[2],11.83 mg/dL
same,POTASSIUM,[2],6.4 MEQ/L
same,SODIUM,[2],146.95 MEQ/L
same,TOTAL BILIRUBIN,[2],0.22 mg/dL
same,TOTAL PROTEIN,[2],6.22 G/DL
same,URIC ACID,[2],1.83 mg/dL
same,ABSOLUTE BASOPHIL,[3],0 CELLS/uL
same,ABSOLUTE EOSINOPHIL,[3],319 CELLS/uL
same,ABSOLUTE LYMPHOCYTE,[3],14175 CELLS/uL
same,ABSOLUTE MONOCYTE,[3],161.67 CELLS/uL
same,ABSOLUTE SEGMENTED NEUTROPHIL,[3],1511 CELLS/uL
same,BASOPHIL,[3],0%
same,EOSINOPHIL,[3],2%
same,ERYTHROCYTE COUNT,[3],5.5 x10E6/uL
same,HEMATOCRIT,[3],34.43%
same,HEMOGLOBIN,[3],13.03 G/DL
same,LEUKOCYTE COUNT,[3],16.17 x10E3/uL
same,LYMPHOCYTE,[3],87.67%
same,MEAN CORPUSCULAR HEMOGLOBIN,[3],23.7 pg
same,MEAN CORPUSCULAR HEMOGLOBIN CONCENTRATION,[3],37.87 G/DL
same,MEAN CORPUSCULAR VOLUME,[3],62.57 fL
same,MONOCYTE,[3],1%
same,NEUTROPHIL,[3],9.33%
same,NUCLEATED RED BLOOD CELLS,[3],0 /100WBC
same,PLATELET COUNT,[3],1231 x10E3/uL
same,ALANINE AMINOTRANSFERASE,[3],51.33 u/L
same,ALKALINE PHOSPHATASE,[3],320.67 u/L
same,ASPARTATE AMINOTRANSFERASE,[3],113 u/L
same,BLOOD UREA NITROGEN,[3],12.33 mg/dL
same,CARBON DIOXIDE,[3],28.33 mmol/L
same,CHLORIDE,[3],101.33 MEQ/L
same,CHOLESTEROL,[3],94 mg/dL
same,CREATINE PHOSPHOKINASE,[3],788.33 u/L
same,CREATININE,[3],0.2 mg/dL
same,GLUCOSE,[3],138.33 mg/dL
same,LACTATE DEHYDROGENASE,[3],1127.33 u/L
same,LIPASE,[3],9.67 u/L
same,PHOSPHORUS,[3],11.8 mg/dL
same,POTASSIUM,[3],6.43 MEQ/L
same,SODIUM,[3],144.43 MEQ/L
same,TOTAL BILIRUBIN,[3],0.2 mg/dL
same,TOTAL PROTEIN,[3],5.7 G/DL
same,URIC ACID,[3],1.63 mg/dL
same,ABSOLUTE BASOPHIL,[4],0 CELLS/uL
same,ABSOLUTE EOSINOPHIL,[4],162 CELLS/uL
same,ABSOLUTE LYMPHOCYTE,[4],12014 CELLS/uL
same,ABSOLUTE MONOCYTE,[4],120 CELLS/uL
same,ABSOLUTE SEGMENTED NEUTROPHIL,[4],1804 CELLS/uL
same,BASOPHIL,[4],0%
same,EOSINOPHIL,[4],1%
same,ERYTHROCYTE COUNT,[4],5.5 x10E6/uL
same,HEMATOCRIT,[4],34.77%
same,HEMOGLOBIN,[4],13.6 G/DL
same,LEUKOCYTE COUNT,[4],14.1 x10E3/uL
same,LYMPHOCYTE,[4],85.67%
same,MEAN CORPUSCULAR HEMOGLOBIN,[4],24.7 pg
same,MEAN CORPUSCULAR HEMOGLOBIN CONCENTRATION,[4],39.13 G/DL
same,MEAN CORPUSCULAR VOLUME,[4],63.2 fL
same,MONOCYTE,[4],1%
same,NEUTROPHIL,[4],12.33%
same,NUCLEATED RED BLOOD CELLS,[4],0 /100WBC
same,PLATELET COUNT,[4],1229 x10E3/uL
same,ALANINE AMINOTRANSFERASE,[4],56 u/L
same,ALKALINE PHOSPHATASE,[4],334.33 u/L
same,ASPARTATE AMINOTRANSFERASE,[4],113.67 u/L
same,BLOOD UREA NITROGEN,[4],15 mg/dL
same,CARBON DIOXIDE,[4],23.33 mmol/L
same,CHLORIDE,[4],103.33 MEQ/L
same,CHOLESTEROL,[4],77.33 mg/dL
same,CREATINE PHOSPHOKINASE,[4],1028.67 u/L
same,CREATININE,[4],0.23 mg/dL
same,GLUCOSE,[4],151.33 mg/dL
same,LACTATE DEHYDROGENASE,[4],644.67 u/L
same,LIPASE,[4],9 u/L
same,PHOSPHORUS,[4],11.9 mg/dL
same,POTASSIUM,[4],5.95 MEQ/L
same,SODIUM,[4],143.77 MEQ/L
same,TOTAL BILIRUBIN,[4],0.2 mg/dL
same,TOTAL PROTEIN,[4],5.97 G/DL
same,URIC ACID,[4],1.33 mg/dL
